{"source": "patent US12103916B2", "about": "“Antifungal compounds” (University of Kentucky Research Foundation, priority 2016, dated 2024)", "key": {"[1]": {"system": "C. albicans ATCC MYA-1237(R)", "conditions": "Table 1; strain F; control azoles; previously reported (refs 5, 16); cited from earlier work"}, "[2]": {"system": "C. albicans ATCC 64124 (strain B) biofilms", "test": "Antibiofilm activity by XTT reduction assay", "assay_type": "cell-based, Candida albicans", "conditions": "Table 4, Ex.2", "experimental": "Antibiofilm activity of synthetic compounds. Biofilms are complex functional communities of one or more species of microorganisms that are encased in extracellular polymeric substances and attached to both a solid surface and to each other. Being complex matrices, antifungal agents have difficulty reaching the pathogens embedded in these difficult-to-treat networks. The antibiofilm activity of compounds 7, 9, 20, 22, 25, and 26, as well as that of VOR were evaluated against biofilms of C. albicans ATCC 64124 (strain B) by XTT reduction assay (Table 4)."}, "[3]": {"system": "Aspergillus terreus ATCC MYA-3633", "conditions": "Table 1; strain M; control azoles; previously reported (refs 5, 16); cited from earlier work"}, "[4]": {"system": "C. albicans ATCC MYA-1237(R)", "test": "MIC determination, strain F", "assay_type": "cell-based, Candida albicans", "conditions": "Candida albicans", "text": "For all of our azole derivatives we report their MIC-0 values against C. albicans ATCC 10231 (strain A) and all Aspergillus strains (K-M), which correspond to complete growth inhibition of these fungi. […] The MIC values presented for these five control drugs were either tested herein or correspond to our previously published data^5, 16 as indicated in Table 1.\nAntifungal activity in the absence or presence of serum.\nIt is important to note that all comparisons to follow will be done by using the MIC values reported in μg/mL as the data were collected that way. However, we also present in parentheses in Table 2 the corresponding values in micromolar.\nIn this manuscript, we performed all activity comparisons by using the MIC values reported in μg/mL (Note: the corresponding MIC values are also provided in μM into parentheses in Tables 1, 2, S1, and S2)."}, "[5]": {"system": "cell membrane integrity of C. albicans ATCC 10231 (strain A)", "test": "Membrane permeabilization assay (propidium iodide uptake)", "assay_type": "cell-based, Candida albicans", "conditions": "Ex.3 series; 4×MIC", "experimental": "FIG. 20 includes the Effect of the controls VOR (negative) and KANB (C14) (positive) as well as compounds 5-9 on the cell membrane integrity of C. albicans ATCC 10231 (strain A). […] The experiments were performed in duplicate.\nPI is a membrane impermeable dye that cannot enter the intact cell unless the cell membrane is damaged. Using these compounds, we also wanted to determine how do the lengths of the alkyl side chains correlate with the membrane disruption potential of these antifungal agents.\nMembrane permeabilization assay. […] Based on these findings, we assumed that the hybrids generated in this study could also potentially cause fungal death by disrupting the fungal membrane. To investigate this possible mechanism of action, we evaluated the effect of compounds 20 and 26 on fungal cell membrane integrity by using propidium iodide (PI) dye as a probe (FIG. 12). […] Afterwards, the dye binds to nucleic acid and fluoresces, which can be observed under a fluorescence microscope. […]\nTherefore, we decided to study the potential effect of compounds 8 and 9 with C12 and C14 linear alkyl chains to determine the impact of chain length on membrane disruption (FIG. 20). […] The propidium iodide (PI) dye was used as a probe as it can only enter cells with compromised membrane and bind to nucleic acid to emit fluorescence, which can be observed under a fluorescence microscope. […]"}, "[6]": {"system": "C. albicans ATCC 90819(R)", "conditions": "Table 1; strain D; control azoles; previously reported (refs 5, 16); cited from earlier work"}, "Candida krusei ATCC 6258": {"system": "Candida krusei ATCC 6258", "conditions": "Table 1; strain I; control azoles; previously reported (refs 5, 16); cited from earlier work"}, "[7]": {"system": "C. albicans ATCC MYA-2876(S)", "conditions": "Table 1; strain C; control azoles; previously reported (refs 5, 16); cited from earlier work"}, "[8]": {"system": "C. albicans ATCC 10231 (strain A)", "test": "Time-kill assay, strain A", "assay_type": "cell-based, Candida albicans", "conditions": "Ex.2 series, compound at 4×MIC, VOR control"}}, "note": "Like-named read-outs stand apart in the source and are kept apart here. Marks after values point to notes of the source that are not given here.", "data": [{"smiles": "C[C@@H](c1ncncc1F)[C@](O)(Cn1cncn1)c1ccc(F)cc1F", "note": "[VOR, voriconazole]", "values": [{"measurement": "MIC (MIC-2)", "setting": "[1]", "value": "7.8^c μg/mL"}, {"measurement": "SMIC50", "setting": "[2]; reduces metabolic activity of biofilms by 50%", "value": 62.5, "unit": "µg/mL"}, {"measurement": "SMIC80", "setting": "[2]; reduces metabolic activity of biofilms by 80%", "value": 62.5, "unit": "µg/mL"}, {"measurement": "MIC (MIC-2)", "setting": "[3]", "value": "0.12^c μg/mL"}, {"measurement": "MIC", "setting": "[4]; read-out: MIC (MIC-2)", "value": 7.8, "unit": "µg/mL"}, {"measurement": "MIC", "setting": "[4]; read-out: MIC (MIC-2), in parentheses", "value": 22.3, "unit": "µM"}, {"measurement": "PI dye uptake by fungal cells", "setting": "[5]", "value": "did not allow for PI uptake"}, {"measurement": "MIC (MIC-2)", "setting": "[6]", "value": "1.95^c μg/mL"}, {"measurement": "MIC (MIC-2)", "setting": "Candida krusei ATCC 6258", "value": "0.12^c μg/mL"}, {"measurement": "MIC (MIC-2)", "setting": "[7]", "value": "1.95^c μg/mL"}, {"measurement": "effect in time-kill assay", "setting": "[8]", "value": "fungistatic"}]}]}
